Measured values as given in BigSolDB 2.1.

Compound: CCOc1nc2cccc(C(=O)OC(C)OC(=O)OC3CCCCC3)c2n1Cc1ccc(-c2ccccc2-c2nn[nH]n2)cc1 (stereo not given)
- solubility (mole fraction) (in acetone, 293.15 K): 0.00673
- solubility (mole fraction) (in acetone, 298.15 K): 0.00783
- solubility (mole fraction) (in acetone, 303.15 K): 0.00946
- solubility (mole fraction) (in acetone, 308.15 K): 0.0111
- solubility (mole fraction) (in acetone, 313.15 K): 0.0133
- solubility (mole fraction) (in acetonitrile, 293.15 K): 0.000582
- solubility (mole fraction) (in acetonitrile, 303.15 K): 0.000912
- solubility (mole fraction) (in acetonitrile, 313.15 K): 0.0016
- solubility (mole fraction) (in acetonitrile, 323.15 K): 0.00263
- solubility (mole fraction) (in acetonitrile, 333.15 K): 0.00441
- solubility (mole fraction) (in ethanol, 303.15 K): 0.00144
- solubility (mole fraction) (in ethanol, 313.15 K): 0.00235
- solubility (mole fraction) (in ethanol, 323.15 K): 0.00465
- solubility (mole fraction) (in ethanol, 333.15 K): 0.00824
- solubility (mole fraction) (in ethanol, 343.15 K): 0.0118
